The numbers were not newly measured in patent publication US20210252031A1, “USE OF LACTULOSE IN THE TREATMENT OF AUTISM” (Curemark, LLC, priority 2006, published 2021), which cites them from elsewhere.

Each structure is given as a SMILES string.

In the case of `OC[C@H]1O[C@@H](O[C@@H]2[C@@H](CO)OC(O)(CO)[C@H]2O)[C@H](O)[C@@H](O)[C@H]1O` (stereo partly drawn) [Lactulose, 4-O-beta-D-galactopyranosyl-D-fructofuranose], the solubility in water result is “very soluble in water”.
